Each molecule was assayed against human KV7.2/KV7.3 (Homo sapiens (Human), UniProt O43525+O43526) (assay: Potassium flux assay (IPG-2 AM dye)). Conditions: TREX HEK 293 or HEK 293 cells expressing human KV7.2/KV7.3; arithmetic mean values.
Type: cell-based
Summary of the method: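 EC50 from 16 concentrations (2-fold dilutions, top 30 μM), scaled between DMSO baseline and a known KV7.x modulator maximum. Signal is IPG-2 AM fluorescence (ex 530/em 558 nm) after 10 mM KCl challenge buffer addition, following 20 min room-temperature compound exposure of HEK 293 or TREX HEK 293 cells stably expressing human KV7.2/KV7.3.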

`Clc1ccc(Nc2nccc3cc(Oc4cccnc4)ccc23)cn1` [Example 266, N-(6-chloropyridin-3-yl)-6-(pyridin-3-yloxy)isoquinolin-1-amine] and `Clc1ccc(Nc2nccc3cc(Oc4cn[nH]c4)ccc23)cn1` [Example 267, 6-((1H-pyrazol-4-yl)oxy)-N-(6-chloropyridin-3-yl)isoquinolin-1-amine] fall in the same range of EC50: 1 to 10 µM for the first, 1 to 10 µM for the second.

First: CS(=O)(=Nc1ccc2c(Nc3ccc(Cl)nc3)nccc2c1)C1CC1 (centres unmarked) [Example 268, ((1-((6-chloropyridin-3-yl)amino)isoquinolin-6-yl)imino)(cyclopropyl)(methyl)-λ^6-sulfanone]
Second: CS(=O)(=Nc1ccc2c(Nc3ccc(Cl)nc3)nccc2c1)C1CCOCC1 (centres unmarked) [Example 270, ((1-((6-chloropyridin-3-yl)amino)isoquinolin-6-yl)imino)(methyl)(tetrahydro-2H-pyran-4-yl)-λ^6-sulfanone]
The EC50 of the first is lower: < 1 µM for the first, 1 to 10 µM for the second. The first is the more potent here.

`CS(=O)(CC1CC1)=Nc1ccc2c(Nc3ccc(Cl)nc3)nccc2c1` (centres unmarked) [Example 269, ((1-((6-chloropyridin-3-yl)amino)isoquinolin-6-yl)imino)(cyclopropylmethyl)(methyl)-λ^6-sulfanone] and `CS(=O)(CC1COC1)=Nc1ccc2c(Nc3ccc(Cl)nc3)nccc2c1` (centres unmarked) [Example 272, ((1-((6-chloropyridin-3-yl)amino)isoquinolin-6-yl)imino)(methyl)(oxetan-3-ylmethyl)-λ^6-sulfanone] fall in the same range of EC50: 1 to 10 µM for the first, 1 to 10 µM for the second.

`COCCS(=O)(=Nc1ccc2c(Nc3ccc(Cl)nc3)nccc2c1)C1CC1` (centres unmarked) [Example 271, ((1-((6-chloropyridin-3-yl)amino)isoquinolin-6-yl)imino)(cyclopropyl)(2-methoxyethyl)-λ^6-sulfanone] and `CS(=O)(=Nc1ccc2c(Nc3ccc(Cl)nc3)nccc2c1)C1COC1` (centres unmarked) [Example 275, ((1-((6-chloropyridin-3-yl)amino)isoquinolin-6-yl)imino)(methyl)(oxetan-3-yl)-λ^6-sulfanone] fall in the same range of EC50: 1 to 10 µM for the first, 1 to 10 µM for the second.

`Cc1ncc(Nc2nccc3cc(N=S(C)(=O)C4CC4)ccc23)cn1` (centres unmarked) [Example 278, cyclopropyl(methyl)((1-((2-methylpyrimidin-5-yl)amino)isoquinolin-6-yl)imino)-λ^6-sulfanone] and `CS(=O)(=O)C1(COc2ccc3c(Nc4ccc(Cl)nc4)nccc3c2)CC1` [Example 286, N-(6-chloropyridin-3-yl)-6-((1-(methylsulfonyl)cyclopropyl)methoxy)isoquinolin-1-amine] fall in the same range of EC50: 1 to 10 µM for the first, 1 to 10 µM for the second.

Compared with `FC(F)n1cc(COc2ccc3c(Nc4ccc(Cl)nc4)nccc3c2)cn1` [Example 279, N-(6-chloropyridin-3-yl)-6-((1-(difluoromethyl)-1H-pyrazol-4-yl)methoxy)isoquinolin-1-amine], `Clc1ccc(Nc2nccc3cc(OCc4cnn5c4CCC5)ccc23)cn1` [Example 281, N-(6-chloropyridin-3-yl)-6-((5,6-dihydro-4H-pyrrolo[1,2-b]pyrazol-3-yl)methoxy)isoquinolin-1-amine] is higher in EC50: < 1 µM for the first, 10 to 30 µM for the second. The first is the more potent here.

`Clc1ccc(Nc2nccc3cc(OC[C@H]4CCCN4Cc4ccccc4)ccc23)cn1` [Example 280, (R)-6-((1-benzylpyrrolidin-2-yl)methoxy)-N-(6-chloropyridin-3-yl)isoquinolin-1-amine] and `Clc1ccc(Nc2nccc3cc(OC[C@@H]4CCN(Cc5ccccc5)C4)ccc23)cn1` [Example 283, (R)-6-((1-benzylpyrrolidin-3-yl)methoxy)-N-(6-chloropyridin-3-yl)isoquinolin-1-amine] fall in the same range of EC50: 1 to 10 µM for the first, 1 to 10 µM for the second.

`Clc1ccc(Nc2nccc3cc(OC4CCN(Cc5ccccc5)C4)ccc23)cn1` (centres unmarked) [Example 282, 6-((1-benzylpyrrolidin-3-yl)oxy)-N-(6-chloropyridin-3-yl)isoquinolin-1-amine] and `Clc1ccc(Nc2nccc3cc(OC[C@H]4CCN(Cc5ccccc5)C4)ccc23)cn1` [Example 284, (S)-6-((1-benzylpyrrolidin-3-yl)methoxy)-N-(6-chloropyridin-3-yl)isoquinolin-1-amine] fall in the same range of EC50: 1 to 10 µM for the first, 1 to 10 µM for the second.

`Clc1ccc(Nc2nccc3cc(OCc4cnn5c4CCCC5)ccc23)cn1` [Example 285] gave an EC50 of 1 to 10 µM.
